Data reported in PubChem BioAssay (NCI).
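Grown in 96-well plates, cells were treated for 48 hours with each compound at five concentrations. Insufficient inhibition: endpoint recorded as highest concentration tested. GI50: concentration for 50% inhibition of growth. Definition used: TGI = concentration required for complete inhibition of growth.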

Assays:
Assay in all cases: NCI tumour cell line growth inhibition, 48 h
A498 renal = tested on: A498 renal
A549 NSCLC = tested on: A549 NSCLC
HCC-2998 colon = tested on: HCC-2998 colon
HL-60(TB) leukemia = tested on: HL-60(TB) leukemia
NCI/ADR-RES ovarian = tested on: NCI/ADR-RES ovarian
OVCAR-3 ovarian = tested on: OVCAR-3 ovarian
RPMI-8226 leukemia = tested on: RPMI-8226 leukemia
RXF 393 renal = tested on: RXF 393 renal
SF-268 CNS = tested on: SF-268 CNS
SNB-75 CNS = tested on: SNB-75 CNS

C=C1c2c(Cl)ccc(O)c2C(O)=C2C(=O)[C@]3(O)C(O)=C(C(N)=O)C(=O)[C@@H](N(C)C)[C@@H]3[C@@H](O)[C@H]12
GI50 (A498 renal): 0.663 µM | TGI (A498 renal): 4.09 µM | GI50 (A549 NSCLC): 1.39 µM | TGI (A549 NSCLC): 16.6 µM | GI50 (HCC-2998 colon): 1.32 µM | TGI (HCC-2998 colon): 5.61 µM | GI50 (HL-60(TB) leukemia): 1.22 µM | TGI (HL-60(TB) leukemia): 3.57 µM | GI50 (NCI/ADR-RES ovarian): 2.43 µM | TGI (NCI/ADR-RES ovarian): > 50 µM | GI50 (OVCAR-3 ovarian): 1.36 µM | TGI (OVCAR-3 ovarian): 5.25 µM | GI50 (RPMI-8226 leukemia): 1.1 µM | TGI (RPMI-8226 leukemia): 4.25 µM | GI50 (RXF 393 renal): 0.534 µM | TGI (RXF 393 renal): 2.82 µM | GI50 (SF-268 CNS): 1.41 µM | TGI (SF-268 CNS): 7.16 µM | GI50 (SNB-75 CNS): 0.845 µM | TGI (SNB-75 CNS): 3.61 µM

CCn1c2ccccc2c2cc(C(O)c3cccc4ncccc34)ccc21 (centres undefined)
GI50 (A498 renal): 0.0251 µM | TGI (A498 renal): 0.267 µM | GI50 (A549 NSCLC): 0.0684 µM | TGI (A549 NSCLC): > 49.4 µM | GI50 (HCC-2998 colon): 0.257 µM | TGI (HCC-2998 colon): 15.7 µM | GI50 (HL-60(TB) leukemia): 0.0279 µM | TGI (HL-60(TB) leukemia): 0.0787 µM | GI50 (NCI/ADR-RES ovarian): 0.0396 µM | TGI (NCI/ADR-RES ovarian): 13.7 µM | GI50 (OVCAR-3 ovarian): 0.0422 µM | TGI (OVCAR-3 ovarian): 39.9 µM | GI50 (RPMI-8226 leukemia): 0.0724 µM | TGI (RPMI-8226 leukemia): 7.85 µM | GI50 (RXF 393 renal): 0.0518 µM | GI50 (SF-268 CNS): 0.068 µM | TGI (SF-268 CNS): > 73.6 µM | GI50 (SNB-75 CNS): 0.0254 µM | TGI (SNB-75 CNS): 34.1 µM

Cn1cnc([N+](=O)[O-])c1Sc1ncn[nH]1
GI50 (A498 renal): > 100 µM | TGI (A498 renal): > 100 µM | GI50 (A549 NSCLC): > 100 µM | TGI (A549 NSCLC): > 100 µM | GI50 (HCC-2998 colon): > 100 µM | TGI (HCC-2998 colon): > 100 µM | GI50 (HL-60(TB) leukemia): 75.5 µM | TGI (HL-60(TB) leukemia): > 100 µM | GI50 (NCI/ADR-RES ovarian): > 100 µM | TGI (NCI/ADR-RES ovarian): > 100 µM | GI50 (OVCAR-3 ovarian): 47.3 µM | TGI (OVCAR-3 ovarian): > 100 µM | GI50 (RPMI-8226 leukemia): 43.9 µM | TGI (RPMI-8226 leukemia): > 100 µM | GI50 (RXF 393 renal): 29 µM | TGI (RXF 393 renal): > 100 µM | GI50 (SF-268 CNS): > 100 µM | TGI (SF-268 CNS): > 100 µM | GI50 (SNB-75 CNS): > 100 µM | TGI (SNB-75 CNS): > 100 µM

CCN(CC)CCOc1ccc(C(=O)/C=C\c2ccc(Cl)cc2Cl)cc1
GI50 (A498 renal): 12.3 µM | TGI (A498 renal): 24.7 µM | GI50 (A549 NSCLC): 6.55 µM | TGI (A549 NSCLC): 22.6 µM | GI50 (HCC-2998 colon): 2.18 µM | TGI (HCC-2998 colon): 4.65 µM | GI50 (HL-60(TB) leukemia): 2.67 µM | TGI (HL-60(TB) leukemia): 6.25 µM | GI50 (NCI/ADR-RES ovarian): 9.91 µM | TGI (NCI/ADR-RES ovarian): 23.3 µM | GI50 (OVCAR-3 ovarian): 3.84 µM | TGI (OVCAR-3 ovarian): 14.3 µM | GI50 (RPMI-8226 leukemia): 1.94 µM | TGI (RPMI-8226 leukemia): 6.34 µM | GI50 (RXF 393 renal): 5.13 µM | TGI (RXF 393 renal): 18.1 µM | GI50 (SF-268 CNS): 8.41 µM | TGI (SF-268 CNS): 23.7 µM | GI50 (SNB-75 CNS): 2.53 µM | TGI (SNB-75 CNS): 12.1 µM

CC(C)CCN[C@@H]1CCc2cc(O)c(N3CC(=O)NS3(=O)=O)c(F)c2C1
GI50 (A498 renal): > 100 µM | TGI (A498 renal): > 100 µM | GI50 (A549 NSCLC): > 100 µM | TGI (A549 NSCLC): > 100 µM | GI50 (HCC-2998 colon): > 100 µM | TGI (HCC-2998 colon): > 100 µM | GI50 (HL-60(TB) leukemia): > 100 µM | TGI (HL-60(TB) leukemia): > 100 µM | GI50 (NCI/ADR-RES ovarian): > 100 µM | TGI (NCI/ADR-RES ovarian): > 100 µM | GI50 (OVCAR-3 ovarian): > 100 µM | TGI (OVCAR-3 ovarian): > 100 µM | GI50 (RPMI-8226 leukemia): > 100 µM | TGI (RPMI-8226 leukemia): > 100 µM | GI50 (RXF 393 renal): 0.812 µM | TGI (RXF 393 renal): 8.01 µM | GI50 (SF-268 CNS): > 100 µM | TGI (SF-268 CNS): > 100 µM | GI50 (SNB-75 CNS): 1.17 µM | TGI (SNB-75 CNS): > 100 µM
